The IC50 is the concentration that gives 50% inhibition. What is called half-life is how long it takes for the measured level to halve. Read a low half-life as rapid decline. Usually bioavailability stands for the share of a dose that reaches the circulation, judged against a reference dose that is usually intravenous. A word on the inhibition: it is the share of the control response that was lost under treatment. As a reminder, the clearance is the volume of plasma or blood freed of the substance per unit of time. Higher therefore signals efficient removal. What is called Cmax is the maximum level reached in the sampled fluid or tissue. What is called Tmax is the time at which the peak concentration occurs. One may read the inhibition in vivo as the share of the control response that was lost under treatment.

Series [1] is described as follows: Inhibition of N-type calcium channel alpha1B/alpha2delta-1/beta1b assessed as inhibition of KCl-induced calcium mobilization by FDSS. Background: Calcium assays in cells follow changes in intracellular calcium, usually with a dye or a luminescent sensor.
The nature of series [2]: (§1) Metabolic stability in rat liver microsomes assessed as compound remaining after 10 mins. The format is ADME, Microsome. The settings on record: liver microsomes, read-out: Stability. In general terms: Microsomes from liver hold many membrane-bound enzymes, among them those of drug oxidation.
Series [3] relates to Liver microsomes. Nature of the series: (§2) Metabolic stability in human liver microsomes assessed as compound remaining after 10 mins. The format is ADME, Microsome. The settings on record: microsomes, 10 min.
The test system of series [4] is Liver microsomes. The series is described as §1. The format is ADME, Microsome. The settings on record: microsomes, 10 min.
A short description of series [5]: as §2. The conditions noted are these: liver microsomes, read-out: Stability. The format is ADME, Microsome.
The nature of series [6]: Inhibition of N-type calcium channel alpha1B/alpha2delta-1/beta1b by patch clamp analysis. On the technique in general: The patch-clamp technique gives a direct electrical read-out from membranes.
Series [7] can be described thus: Half life in Sprague-Dawley rat at 2 mg/kg, iv. The conditions noted are these: in vivo. On the set-up: dose 2 mg/kg, route intravenous. It is filed as ADME, organism-based.
A short description of series [8]: Oral bioavailability in Sprague-Dawley rat at 10 mg/kg. The settings on record: in vivo. It is filed as ADME, organism-based.
Series [9] can be described thus: Inhibition of L-type calcium channel at 5 uM.
Series [10] deals with Rattus norvegicus. Briefly: Antiinflammatory activity in Sprague-Dawley rat assessed as reversal of carrageenan-induced thermal hypersensitivity at 30 mg/kg, ip administered 1 hr before carrageenan challenge relative to control. It is filed as functional. The settings on record: route intraperitoneal.
Series [11] concerns Rattus norvegicus. Briefly: Antiinflammatory activity in ip dosed Sprague-Dawley rat assessed as reversal of carrageenan-induced thermal hypersensitivity administered 1 hr before carrageenan challenge. It is filed as functional, organism-based.
The nature of series [12]: Clearance in Sprague-Dawley rat at 2 mg/kg, iv. It is filed as ADME, organism-based. On the set-up: dose 2 mg/kg, route intravenous. The conditions noted are these: in vivo.
A short description of series [13]: Cmax in Sprague-Dawley rat at 10 mg/kg, po. On the set-up: dose 10 mg/kg, route oral. The conditions noted are these: in vivo. The format is ADME, organism-based.
A further series deals with Plasma. Nature of the series: Plasma concentration in Sprague-Dawley rat at 30 mg/kg, ip. The format is ADME, organism-based. On the set-up: dose 30 mg/kg, route intraperitoneal. The settings on record: in vivo.
Series [14] is described as follows: Tmax in Sprague-Dawley rat at 10 mg/kg, po. It is filed as ADME, organism-based. On the set-up: dose 10 mg/kg, route oral. The settings on record: in vivo.
Series [15] concerns Rattus norvegicus. Nature of the series: Antiallodynic activity in Sprague-Dawley rat chronic constriction injury-induced neuropathic pain model assessed as attenuation of CCl-induced cold allodynia at 30 mg/kg, ip measured at 1 to 4 hrs. It is filed as functional. The settings on record: route intraperitoneal.
For series [16], the species on record is Rattus norvegicus. Nature of the series: Ex vivo inhibition of rat N-type calcium channel assessed as inhibition of KCl-stimulated CGRP release at 1 uM by ELISA in presence of conotoxin GVIA. It is filed as functional.

Structures are written as SMILES. Where only a bound is given, the exact number is not on record here.

Consider `COc1ccccc1-n1nc(CCCO)cc1-c1ccc(Cl)cc1`, for which the IC50 in series [1] amounted to 0.097 µM. Also, the remaining at 10 min in series [2] came out at 14%.
As for `COc1ccccc1-n1nc(C2CCN(S(C)(=O)=O)CC2)cc1C1CCC(C)(C)CC1`, the IC50 in series [1] came out at 0.14 µM.
For `COc1c(Cl)cccc1-n1nc(C2CCN(S(C)(=O)=O)CC2)cc1-c1ccc(Cl)cc1`, in series [1], the concentration for half-maximal inhibition (IC50) came to 0.17 µM.
On to `COc1ccccc1-n1nc(C2CCN(S(=O)(=O)N(C)C)CC2)cc1-c1ccc(Cl)cc1`, for which the half-maximal inhibitory concentration (IC50) in [1] came to 0.011 µM. Further, the Stability result in the series on Liver microsomes [3] and in the series with Liver microsomes [4] was “Unstable” in each case.
Regarding `COc1ccccc1-n1nc(C2CCN(S(C)(=O)=O)CC2)cc1-c1ccc(OC(C)C)cc1`, the half-inhibitory concentration (IC50) in series [1] amounted to 0.25 µM.
On to `OCCCc1cc(-c2ccc(Cl)cc2)n(-c2ccccc2)n1`, for which the half-inhibitory concentration (IC50) in series [1] is 1.2 µM.
With `COc1ccccc1-n1nc(C2CCN(S(=O)(=O)C(F)(F)F)CC2)cc1-c1ccc(Cl)cc1`, the concentration for half-maximal inhibition (IC50) in series [1] came to 0.016 µM. Moreover, the figures for the remaining at 10 min in series [5] and in [2] were 98% and 100%, respectively.
Take `COc1ccccc1-n1nc(C2CCN(S(C)(=O)=O)CC2)cc1-c1ccc(C#N)cc1`: the IC50 in [1] is 0.17 µM.
In the case of `COc1ccccc1-n1nc(C2CCN(S(=O)(=O)C(C)C)CC2)cc1-c1ccc(Cl)cc1`, the values for the 50% inhibitory concentration (IC50) in series [1] and in [6] were 0.018 µM and 0.08 µM, respectively. For the same compound, the values for the remaining at 10 min in [5] and in [2] were 100% and 19%, respectively.
Regarding `COc1ccccc1-n1nc(C2CCN(S(C)(=O)=O)CC2)cc1-c1ccc(Cl)c(C#N)c1`, the concentration for half-maximal inhibition (IC50) in [1] stood at 0.095 µM.
Same read-out and setting: with `COc1ccccc1-n1nc(C2CCN(S(C)(=O)=O)CC2)cc1-c1ccc2c(ccn2C)c1` the figure was 0.068 µM.
With `CC(C)Oc1ccccc1-n1nc(C2CCN(S(C)(=O)=O)CC2)cc1-c1ccc(Cl)cc1`, the 50% inhibitory concentration (IC50) in series [1] amounted to 0.005 µM. For the same compound, the remaining at 10 min in series [5] was 18%; in [2], 5%.
For the compound `COc1ccccc1-n1nc(C2CCN(S(C)(=O)=O)CC2)cc1-c1ccc(N(C)C)cc1`, the concentration for half-maximal inhibition (IC50) in series [1] is 0.061 µM.
On to `COc1ccccc1-n1nc(C2CCN(S(C)(=O)=O)CC2)cc1-c1ccc(Cl)cc1Cl`, for which the half-maximal inhibitory concentration (IC50) in series [1] was determined as 0.015 µM.
With `CN(C)c1ccccc1-n1nc(C2CCN(S(C)(=O)=O)CC2)cc1-c1ccc(Cl)cc1`, the IC50 in series [1] came out at 0.013 µM.
With `COc1ccccc1-n1nc(C2CCN(S(C)(=O)=O)CC2)cc1C1=CCC(C)(C)CC1`, the IC50 in [1] came to 0.049 µM.
Consider `COc1ccccc1-n1nc(C2CCN(S(C)(=O)=O)CC2)cc1-c1cc2ccccc2o1`, for which the IC50 in series [1] amounted to 0.4 µM.
Turning to `CCS(=O)(=O)N1CCC(c2cc(-c3ccc(Cl)cc3)n(-c3ccccc3OC)n2)CC1`, in [1], the IC50 came out at 0.035 µM. The Stability result in the series on Liver microsomes [3] is “Unstable”. The remaining at 10 min in series [2] worked out at 22%.
As for `COc1ccccc1-n1nc(C2CCN(S(C)(=O)=O)CC2)cc1-c1ccc(Cl)s1`, in series [1], the half-inhibitory concentration (IC50) was 0.093 µM.
Regarding `COc1ccccc1-n1nc(C2CCN(S(C)(=O)=O)CC2)cc1-c1ccc(Cl)cc1`, the half-life in series [7] was 1.5 h. For the same compound, the bioavailability in series [8] worked out at 42.5%. The IC50 is 0.027 µM in series [1] and 0.2 µM in [6]. The inhibition in [9] worked out at 52%. Moreover, the Activity with Rattus norvegicus [10] is 82%; in the series with Rattus norvegicus [11] it was “Dose-dependent effect”. Further, the remaining at 10 min in series [5] was determined as 86%; in series [2], 45%. Besides, the clearance in series [12] came to 26 mL/min/kg. The same compound displayed a Cmax in series [13] of 1.5 µM. The concentration in the series on Plasma was found to be 8.32 µM. For the same compound, the Tmax in series [14] turned out to be 0.9 h. Besides, the inhibition in vivo at 30 mg/kg in the series with Rattus norvegicus [15] was determined as 41%. Also, the “inhibition (INH)” value in the series filed under Rattus norvegicus [16] is given as 91%.
As to `COc1ccccc1-n1nc(C2CCN(S(C)(=O)=O)CC2)cc1-c1ccc(C(C)(C)C)cc1`, the IC50 in [1] came to 0.029 µM.
For the compound `COc1ccccc1-n1nc(C2CCN(C(C)=O)CC2)cc1-c1ccc(Cl)cc1`, in series [1], the half-maximal inhibitory concentration (IC50) is 0.017 µM. For the same compound, the remaining at 10 min stood at 59% in series [5] and 7% in [2].
Consider `COc1ccccc1-n1nc(C2CCN(S(C)(=O)=O)CC2)cc1-c1ccc(Cl)c(C(F)(F)F)c1`, for which the IC50 in series [1] worked out at 0.1 µM.
For the compound `COc1ccccc1-n1nc(C2CCN(S(=O)(=O)CC(F)(F)F)CC2)cc1-c1ccc(Cl)cc1`, in series [1], the IC50 was 0.026 µM. Further, the remaining at 10 min in series [5] was found to be 100%; in series [2], 33%.
For `CNc1ccc(-c2cc(C3CCN(S(C)(=O)=O)CC3)nn2-c2ccccc2OC)cc1`, the IC50 in series [1] came out at 0.2 µM.
Turning to `COc1ccccc1-n1nc(C2CCN(S(C)(=O)=O)CC2)cc1-c1ccc(F)cc1`, the IC50 in [1] turned out to be 0.098 µM.
Consider `CS(=O)(=O)N1CCC(c2cc(-c3ccc(Cl)cc3)n(-c3ccccc3N)n2)CC1`, for which the concentration for half-maximal inhibition (IC50) in series [1] was above 0.3 µM.
